Measurements reported in patent US20250255857A1, “METHODS OF TREATING ANDROGEN RECEPTOR-INDEPENDENT PROSTATE CANCER” (FOGHORN THERAPEUTICS INC., priority 2022, published 2025).
Values joined by “and” are separate entries in the source; they are usually repeats but may differ in a detail not shown here. Equal values may be shown once. Read-outs that look alike come from different tables or passages of the source.

Legend:
[1] = test system: LNCaP prostate xenograft tumors; assay: LNCaP prostate xenograft tumor model, tumor growth inhibition; format: in vivo, mice
Experimental: (§1) Procedure: The experimental details of the studies, including tumor model, mouse strain, cell number implanted, vehicle used, days of treatment, treatment details, and average tumor size at start of dosing are outlined in Table 1. All study mice were purchased from Beijing Anikeeper Biotech and Matrigel was utilized as a basement membrane for all xenograft models. All xenografts were engrafted subcutaneously in the right flank region. The vehicles and Compound 1 (3 mg/kg) were administered twice weekly (BIW) intraperitoneally and enzalutamide (30 mg/kg) was administered orally once daily (QD), when applicable. Tumor volumes and body weights were measured over the course of study, and doses were adjusted by body weight to achieve the proper dose in terms of mg/kg.

[2] = Plasma concentration of Compound 1 in DU145 PK/PD cohort; format: in vivo; conditions: for concentration at 72 h: BALA/c nude (sic, BALB/c nude); for concentration at 72 h / concentration at 4 h: mouse, plasma, intraperitoneal; for concentration at 4 h: BALB/c nude
Experimental: (§2) Procedure: The experimental details of the studies, including tumor model, mouse strain, cell number implanted, vehicle used, days of treatment, treatment details, and average tumor size at start of dosing are outlined in Table 3. All study mice were obtained and the studies were conducted at Pharmaron. Each mouse was inoculated subcutaneously on the right flank with the single cell suspension of DU145 human prostate cancer tumor cells (5×10^6) in 0.1 mL with Matrigel (1:1) in MEM with 10% FBS for tumor development.
(§3) Based on tumor volume, mice were randomly assigned to respective groups using a computer-generated randomization procedure. The study groups and the number of animals per group are shown in Table 4A (efficacy study) and Table 4B (PKPD study).
(§4) Treatment for the PKPD cohort was initiated when the mean tumor volume reached 281 mm^3 on Day 14 post tumor cell inoculation. Animals were randomized into 5 groups: 1) Vehicle Control, 3 doses intraperitoneally (IP); 2) Compound 1 at 1 mg/kg, single dose IP; 3) Compound 1 at 15 mg/kg, single dose IP; 4) Compound 1 at 1 mg/kg, 3 doses IP; and 5) Compound 1 at 15 mg/kg, 3 doses IP.
(§5) In the case of an animal reaching a tumor size exceeding 2000 mm^3, the entire group was terminated. Plasma and tumor samples were collected at 4 hours and 72 hours post last dose for all groups. For the PKPD Cohort, the tumors were cut into 2 pieces: one for Western Blotting (WB) with BRD9 analysis, and one for RNAseq analysis. For the Efficacy Cohort, the tumors were analyzed for BRD9 levels by Western Blotting (WB).

[3] = test system: DU145 human prostate cancer tumor cells; assay: DU145 subcutaneous CDX model efficacy study (tumor growth inhibition, tolerability); format: in vivo, mice; conditions: for tumor growth inhibition (TGI): DU145, P<0.001 vs. vehicle control; for Tumor Growth % on Day 49 / Tumor Size on Day 49 / T/C / TGI: DU145 subcutaneous model, 43 days; for T/C / TGI: Day 49
Experimental: as §2, §3
Treatment for the efficacy cohort was initiated when the mean tumor volume reached 145 mm^3 on Day 7 post tumor cell inoculation. Animals for the efficacy study were randomized into 3 groups: 1) Vehicle Control BIW IP (administered twice per week, intraperitoneally (IP); 2) Compound 1 at 3 mg/kg BIW IP; and 3) Compound 1 at 15 mg/kg BIW IP.
as §5

[4] = target: T1, BRD9 protein (Homo sapiens, UniProt Q9H8M2); assay: BRD9 levels in DU145 tumors by Western Blotting (PK/PD cohort); format: in vivo; conditions: for BRD9 protein degradation (Western Blot): 72 h post last dose, P<0.05 vs. vehicle control
T1 construct: endogenous in cells; host or cells: DU145 human prostate cancer cells grown as subcutaneous xenograft tumors in mice
T1 sequence (Q9H8M2 1-597): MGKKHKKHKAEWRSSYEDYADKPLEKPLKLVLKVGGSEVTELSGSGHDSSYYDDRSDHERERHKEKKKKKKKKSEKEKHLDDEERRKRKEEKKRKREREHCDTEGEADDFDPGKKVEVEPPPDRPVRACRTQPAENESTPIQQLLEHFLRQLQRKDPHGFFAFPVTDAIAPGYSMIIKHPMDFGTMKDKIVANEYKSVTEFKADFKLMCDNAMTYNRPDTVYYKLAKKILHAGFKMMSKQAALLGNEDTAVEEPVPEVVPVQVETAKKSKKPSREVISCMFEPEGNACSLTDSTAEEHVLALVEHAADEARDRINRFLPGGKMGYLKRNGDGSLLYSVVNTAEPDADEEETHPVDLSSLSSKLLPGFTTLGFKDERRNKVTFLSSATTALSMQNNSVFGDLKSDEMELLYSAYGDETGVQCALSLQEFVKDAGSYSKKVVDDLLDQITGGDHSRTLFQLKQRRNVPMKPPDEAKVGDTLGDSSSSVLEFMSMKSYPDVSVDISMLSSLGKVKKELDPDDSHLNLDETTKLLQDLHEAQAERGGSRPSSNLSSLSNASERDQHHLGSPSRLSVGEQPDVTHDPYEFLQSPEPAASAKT
Experimental: as §2, §3, §4, §5

[5] = test system: PC3 prostate xenograft tumors; assay: PC3 prostate xenograft tumor model, tumor growth inhibition; format: in vivo, mice
Experimental: as §1

[6] = test system: 22Rv1 prostate xenograft tumors; assay: 22Rv1 prostate xenograft tumor model, tumor growth inhibition; format: in vivo, mice
Experimental: as §1

Compound: COc1cc(-c2cn(C)c(=O)c3cnc(N4CCC4)cc23)cc(OC)c1CN1CCC(CN2CCC3(CC2)CN(c2ccc4c(c2)C(=O)N(C2CCC(=O)NC2=O)C4)C3)CC1 (centres unmarked) [Compound 1, 3-(6-(7-((1-(4-(6-(azetidin-1-yl)-2-methyl-1-oxo-1,2-dihydro-2,7-naphthyridin-4-yl)-2,6-dimethoxybenzyl)piperidin-4-yl)methyl)-2,7-diazaspiro[3.5]nonan-2-yl)-1-oxoisoindolin-2-yl) piperidine-2,6-dione]
- TGI with Compound 1 3 mg/kg ([1]; LNCaP CDX model, AR+, 3 mg/kg BIW IP): 6.0%
- tumor growth inhibition (TGI), in words ([1]; LNCaP xenograft, Compound 1 3 mg/kg BIW IP, enzalutamide 30 mg/kg QD oral): did not result in tumor growth inhibition
- Plasma Concentration of Compound 1 (individual mice) ([2]; 1 mg/kg BIW 3 doses IP, 4 hours post last dose, group 4): 10.9 ng/mL and 14.4 ng/mL and 6.89 ng/mL
- Plasma Concentration of Compound 1 (individual mice) ([2]; 1 mg/kg BIW 3 doses IP, 72 hours post last dose, group 4): 2.75 ng/mL and 1.85 ng/mL
- difference in PK between a single dose or three doses ([2]; 1 mg/kg IP): No difference in PK
- Plasma Concentration of Compound 1 (individual mice) ([2]; 1 mg/kg single dose IP, 4 hours post last dose, group 2): 18.0 ng/mL and 9.37 ng/mL and 8.07 ng/mL
- Plasma Concentration of Compound 1 (individual mice) ([2]; 1 mg/kg single dose IP, 72 hours post last dose, group 2, BLOQ = below quantifiable limit of 1.05 ng/mL): 1.59 ng/mL and BLOQ*
- Plasma Concentration of Compound 1 (individual mice) ([2]; 15 mg/kg BIW 3 doses IP, 4 hours post last dose, group 5): 63.4 ng/mL and 71.3 ng/mL
- Plasma Concentration of Compound 1 (individual mice) ([2]; 15 mg/kg BIW 3 doses IP, 72 hours post last dose, group 5): 10.5 ng/mL and 6.77 ng/mL
- PK exposure, single dose vs three doses ([2]; 15 mg/kg IP): 15 mg/kg (single dose) group had better PK exposure than the 15 mg/kg (three doses) group
- Plasma Concentration of Compound 1 (individual mice) ([2]; 15 mg/kg single dose IP, 4 hours post last dose, group 3): 132 ng/mL and 92.3 ng/mL
- Plasma Concentration of Compound 1 (individual mice) ([2]; 15 mg/kg single dose IP, 72 hours post last dose, group 3): 15.7 ng/mL and 50.2 ng/mL and 28.6 ng/mL
- concentration at 72 h ([2]; 1 mg/kg, 1 mg/kg BIW 3 doses IP, 72 hours post last dose, group 4, read-out: Plasma Concentration of Compound 1 (individual mice)): 2.02 ng/mL
- concentration at 72 h ([2]; 1 mg/kg, 1 mg/kg BIW 3 doses IP, 72 hours post last dose, group 4, read-out: Plasma Concentration of Compound 1, Mean): 2.21 ng/mL
- concentration at 72 h ([2]; 1 mg/kg, 1 mg/kg single dose IP, 72 hours post last dose, group 2, BLOQ = below quantifiable limit of 1.05 ng/mL, read-out: Plasma Concentration of Compound 1 (individual mice)): 1.18 ng/mL
- concentration at 72 h ([2]; 1 mg/kg, 1 mg/kg single dose IP, 72 hours post last dose, group 2, read-out: Plasma Concentration of Compound 1, Mean): 1.39 ng/mL
- concentration at 72 h ([2]; 15 mg/kg, 15 mg/kg BIW 3 doses IP, 72 hours post last dose, group 5, read-out: Plasma Concentration of Compound 1 (individual mice)): 6.43 ng/mL
- concentration at 72 h ([2]; 15 mg/kg, 15 mg/kg BIW 3 doses IP, 72 hours post last dose, group 5, read-out: Plasma Concentration of Compound 1, Mean): 7.9 ng/mL
- concentration at 72 h ([2]; 15 mg/kg, 15 mg/kg single dose IP, 72 hours post last dose, group 3, read-out: Plasma Concentration of Compound 1, Mean): 31.5 ng/mL
- concentration at 4 h ([2]; 1 mg/kg, 1 mg/kg BIW 3 doses IP, 4 hours post last dose, group 4, read-out: Plasma Concentration of Compound 1, Mean): 10.8 ng/mL
- concentration at 4 h ([2]; 1 mg/kg, 1 mg/kg single dose IP, 4 hours post last dose, group 2, read-out: Plasma Concentration of Compound 1, Mean): 11.8 ng/mL
- concentration at 4 h ([2]; 15 mg/kg, 15 mg/kg BIW 3 doses IP, 4 hours post last dose, group 5, read-out: Plasma Concentration of Compound 1 (individual mice)): 82.9 ng/mL
- concentration at 4 h ([2]; 15 mg/kg, 15 mg/kg BIW 3 doses IP, 4 hours post last dose, group 5, read-out: Plasma Concentration of Compound 1, Mean): 72.5 ng/mL
- concentration at 4 h ([2]; 15 mg/kg, 15 mg/kg single dose IP, 4 hours post last dose, group 3, read-out: Plasma Concentration of Compound 1 (individual mice)): 147 ng/mL
- concentration at 4 h ([2]; 15 mg/kg, 15 mg/kg single dose IP, 4 hours post last dose, group 3, read-out: Plasma Concentration of Compound 1, Mean): 124 ng/mL
- exposures in plasma, in words ([2]; DU145 PK/PD cohort, 1 and 15 mg/kg IP, 4 h and 72 h post last dose): time and dose dependent exposures
- exposure difference between a single dose and three doses ([2]; at each dose level (1 and 15 mg/kg IP)): no obvious exposure difference
- tumor growth inhibition (TGI) ([3]; 3 mg/kg BIW IP): 42.2%
- tumor growth inhibition (TGI) ([3]; 15 mg/kg BIW IP): 55.3%
- safety profile: tolerability ([3]; DU145 study, 1 mg/kg, 3 mg/kg and 15 mg/kg IP during the treatment period): tolerated Compound 1 well
- clinical abnormalities ([3]; DU145 study, any of the animals treated): No obvious clinical abnormalities
- Tumor Growth % on Day 49 ([3]; 3 mg/kg BIW IP): 710 ± 19%
- Tumor Size on Day 49 ([3]; 3 mg/kg BIW IP): 1029 ± 30 mm^3
- T/C ([3]; 3 mg/kg BIW IP): 57.8%
- TGI ([3]; 3 mg/kg BIW IP): 42.2%
- Tumor Growth % on Day 49 ([3]; 15 mg/kg BIW IP): 549 ± 26%
- Tumor Size on Day 49 ([3]; 15 mg/kg BIW IP): 793 ± 31 mm^3
- T/C ([3]; 15 mg/kg BIW IP): 44.7%
- TGI ([3]; 15 mg/kg BIW IP): 55.3%
- BRD9 protein degradation (Western Blot) ([4]; 15 mg/kg single dose IP): statistically and significantly degrade BRD9 protein
- BRD9 protein degradation (Western Blot) ([4]; 15 mg/kg three doses IP): statistically and significantly degrade BRD9 protein
- correlation of plasma PK with in vivo BRD9 degradation ([4]; DU145 AR-negative prostate CDX model): positively corelates
- TGI with Compound 1 3 mg/kg ([5]; PC3 CDX model, AR−, 3 mg/kg BIW IP): 61.7%
- TGI ([5]; PC-3 CDX model, Compound 1 3 mg/kg BIW IP): 61.7%
- TGI with Compound 1 3 mg/kg ([6]; 22RV1 CDX model, AR V7+, 3 mg/kg BIW IP): 73.2%
- tumor growth inhibition, in words ([6]; 22RV1 xenograft, Compound 1 3 mg/kg BIW IP, enzalutamide 30 mg/kg QD oral): modest tumor growth inhibition which was less than the TGI provided by enzalutamide treatment
- TGI ([6]; 22Rv1 CDX model, Compound 1 3 mg/kg BIW IP, enzalutamide 30 mg/kg QD oral): 73.2%
